# Earlier results in publication PMC10654029 (The Journal of Biological Chemistry, 2023).
# Tests used:
# [1] = tested on: Ba/F3 cells expressing METex14 F1200I; settings: Ba/F3 cells expressing METex14 F1200I vs WT
# [2] = tested on: Ba/F3 cells expressing METex14 L1195V; settings: Ba/F3 cells expressing METex14 L1195V vs WT
smiles,measurement,setting,value
CN1CCC(COc2cnc(-c3cccc(Cn4nc(-c5cccc(C#N)c5)ccc4=O)c3)nc2)CC1 [tepotinib],decrease of cellular potency compared with the WT,[1],~15 fold
same,decrease of cellular potency compared with the WT,[2],~15 fold
